Measured values as given in ChEMBL document CHEMBL1201862, “PubChem BioAssay data set” (2004).
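Results reflect a 48-hour exposure of cells in 96-well plates to compound at five concentrations. At the GI50, growth is halved.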 Calls of active or inactive are those of the source. No stated cut-off is given here; in the data, active = GI50 up to about 1.1 µM and inactive = higher.

Legend:
Test in all cases: growth of human tumour cells (NCI), 48 h
[1] = test system: Malme-3M
[2] = test system: A549
[3] = test system: SNB-19
[4] = test system: NCI-H23
[5] = test system: DU-145
[6] = test system: UO-31
[7] = test system: UACC-257
[8] = test system: MDA-MB-435
[9] = test system: OVCAR-8
[10] = test system: SW-620
[11] = test system: M14
[12] = test system: SN12C
[13] = test system: UACC-62
[14] = test system: OVCAR-3
[15] = test system: MCF7
[16] = test system: MOLT-4
[17] = test system: 786-0
[18] = test system: RPMI-8226
[19] = test system: NCI-H226
[20] = test system: HCC 2998

Measured: GI50

NS(=O)(=O)c1ccc(/N=N/c2ncccc2O)cc1
inactive: [1] > 100 µM | [2] > 100 µM | [3] > 100 µM | [4] 51.4 µM | [5] 38.5 µM | [6] > 100 µM | [7] > 100 µM | [8] > 100 µM | [9] 79.6 µM | [10] 57.3 µM | [11] > 100 µM | [12] 71.8 µM | [13] > 100 µM | [14] 33.7 µM | [15] 57.9 µM | [16] 22.6 µM | [17] 53.1 µM | [18] > 100 µM | [19] > 100 µM

C=CCNS(=O)(=O)c1ncnc2[nH]cnc12
inactive: [1] > 100 µM | [2] > 100 µM | [3] > 100 µM | [4] > 100 µM | [5] > 100 µM | [6] > 100 µM | [7] > 100 µM | [8] > 100 µM | [9] > 100 µM | [10] > 100 µM | [11] > 100 µM | [12] 55.6 µM | [13] > 100 µM | [14] > 100 µM | [15] > 100 µM | [16] 14.2 µM | [17] > 100 µM | [18] 11.8 µM | [19] > 100 µM

Cc1nc(O)c(Cc2ccccc2O)c(-c2ccccc2)n1
inactive: [1] > 100 µM | [2] > 100 µM | [3] > 100 µM | [4] > 100 µM | [5] > 100 µM | [6] > 100 µM | [7] > 100 µM | [8] > 100 µM | [9] > 100 µM | [10] > 100 µM | [11] > 100 µM | [12] > 100 µM | [13] > 100 µM | [14] > 100 µM | [15] > 100 µM | [16] > 100 µM | [17] > 100 µM | [18] > 100 µM | [19] > 100 µM

CN(C)Cc1nsc(N(C)C)n1
inactive: [1] > 100 µM | [2] > 100 µM | [3] > 100 µM | [4] > 100 µM | [5] > 100 µM | [6] > 100 µM | [7] > 100 µM | [8] > 100 µM | [9] > 100 µM | [10] > 100 µM | [11] > 100 µM | [12] > 100 µM | [13] > 100 µM | [14] > 100 µM | [15] > 100 µM | [17] > 100 µM | [18] > 100 µM | [19] > 100 µM

Cc1ccc(S(=O)(=O)N2CCCSCCSCCCSCC2)cc1
inactive: [2] > 100 µM | [3] > 100 µM | [4] > 100 µM | [5] > 100 µM | [6] > 100 µM | [7] > 100 µM | [8] > 100 µM | [9] > 100 µM | [10] > 100 µM | [20] > 100 µM | [11] > 100 µM | [12] > 100 µM | [13] > 100 µM | [14] > 100 µM | [15] > 100 µM | [16] > 100 µM | [17] > 100 µM

COc1cc2oc(=O)cc(C)c2cc1OC
inactive: [1] > 100 µM | [2] > 100 µM | [3] > 100 µM | [4] > 100 µM | [5] > 100 µM | [6] 66.7 µM | [7] > 100 µM | [8] > 100 µM | [9] > 100 µM | [10] > 100 µM | [11] > 100 µM | [12] > 100 µM | [13] > 100 µM | [14] > 100 µM | [15] > 100 µM | [16] > 100 µM | [17] > 100 µM | [18] > 100 µM | [19] > 100 µM
